This experiment concerns the target T1, CpdS (SMA3506), CpdS-His8 (Serratia ureilytica, UniProt A0A9X9G1H8).
T1 construct: gene cpdA
The experiment is described as follows: bis-pNPP hydrolysis assay. The experiment is classed as biochemical. Particulars: read-out: 50% reduction in the activity.

IC50 data for one molecule are collected here from paper PMC3726613, “Bacterial Cyclic AMP-Phosphodiesterase Activity Coordinates Biofilm Formation” (PLoS ONE, 2013).

T1 sequence (A0A9X9G1H8 entry or part of it): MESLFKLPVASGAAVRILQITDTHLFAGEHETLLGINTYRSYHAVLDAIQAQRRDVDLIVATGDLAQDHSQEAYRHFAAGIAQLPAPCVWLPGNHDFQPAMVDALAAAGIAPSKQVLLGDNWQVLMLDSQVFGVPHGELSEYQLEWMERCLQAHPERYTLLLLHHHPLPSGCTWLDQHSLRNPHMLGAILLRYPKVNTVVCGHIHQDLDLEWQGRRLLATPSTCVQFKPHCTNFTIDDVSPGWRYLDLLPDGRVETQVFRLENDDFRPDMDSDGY

For `CC(C)Cn1c(=O)n(C)c(=O)c2[nH]cnc21` [IBMX], the IC50 was determined as 4.8 mM.
